Where two headings read alike, the source gives them in different places.
Target: SARS-CoV-2 NSP3 macrodomain (Mac1), P43 crystal form (Severe acute respiratory syndrome coronavirus 2, UniProt P0DTD1)
Assay type: binding
Details: for 1-BDC: PanDDA background density correction; for X-ray crystal structure: X-ray crystal structure determined (TRUE); for Total number of conformations: ligand conformations modeled in Mac1 crystal structure; for 2*(1-BDC) (%): occupancy estimate from PanDDA 1-BDC; for Binding site: site of ligand in X-ray crystal structure; for X-ray crystallography: Binding site: site where the ligand is bound in the X-ray crystal structure
[1] = crystal soak 10 mM, P43 crystals
[2] = crystal soak, soak concentration 10 mM
[3] = crystal soak, soak concentration 10 mM, TRUE = ligand hit

Row | SMILES | Pandda run, overall: Hit [1] | PanDDA run, DMSO background map: 1-BDC (crystal soak 10 mM) | PanDDA run, DMSO background map: Hit (crystal soak 10 mM) | 1-BDC | X-ray crystal structure | Total number of conformations | 2*(1-BDC) (%) | Binding site | Pandda run, overall: Modeled [2] | Pandda run, overall: Hit [3] | X-ray crystallography: Binding site | PanDDA run, DMSO background map: 1-BDC (soak concentration 10 mM) | PanDDA run, DMSO background map: Hit (soak concentration 10 mM) | other results
1 | O=C(O)C(F)(F)F.OCC(Nc1ncnc2[nH]ccc12)C(O)C1CCCCC1 (stereo not drawn) [AVI-3687] | TRUE | 0.15 | TRUE | – | – | – | – | – | – | – | – | – | – | Pandda run, overall: Modeling comment [1]: Weak density, not modeled; PanDDA run, TFA/DMSO background map: 1-BDC (crystal soak 10 mM): 0.08; PanDDA run, TFA/DMSO background map: Hit (crystal soak 10 mM): TRUE
2 | O=C(O)C(F)(F)F.OCC1(Nc2ncnc3[nH]ccc23)CC1 [AVI-3688] | TRUE | 0.2 | TRUE | 0.2 | TRUE | 1 | 40% | Adenosine | – | – | – | – | – | Pandda run, overall: Modeled [1]: TRUE
3 | OCC(CC1CCCCC1)Nc1ncnc2[nH]ccc12 (stereo not drawn) [AVI-3690] | TRUE | 0.12 | TRUE | 0.12 | TRUE | 1 | 24% | Adenosine | – | – | – | – | – | Pandda run, overall: Modeled [1]: TRUE; Pandda run, overall: Modeling comment [1]: Weak density for alternative ligand conformation
4 | OCC(CC1CCCC1)Nc1ncnc2[nH]ccc12 (stereo not drawn) [AVI-3691] | TRUE | 0.18 | TRUE | 0.18 | TRUE | 1 | 36% | Adenosine | – | – | – | – | – | Pandda run, overall: Modeled [1]: TRUE
5 | OCC(Nc1ncnc2[nH]ccc12)C1CCc2ccccc21 (stereo not drawn) [AVI-3693] | TRUE | 0.22 | TRUE | 0.22 | TRUE | 2 | 44% | Adenosine | – | – | – | – | – | Pandda run, overall: Modeled [1]: TRUE
6 | OCC(Cc1ccccn1)Nc1ncnc2[nH]ccc12 (stereo not drawn) [AVI-3696] | TRUE | 0.13 | TRUE | 0.13 | TRUE | 2 | 26% | Adenosine | – | – | – | – | – | Pandda run, overall: Modeled [1]: TRUE
7 | OCC(O)C1CCCN1c1ncnc2[nH]ccc12 (stereo not drawn) [AVI-3701] | – | – | – | 0.18 | – | 1 | 36% | – | TRUE | TRUE | Adenosine | 0.18 | TRUE | –
8 | O=C(O)C(F)(F)F.OC[C@H]1CC2(CN1c1ncnc3[nH]ccc13)OCCO2 [AVI-3702] | – | – | – | 0.21 | – | 1 | 42% | – | TRUE | TRUE | Adenosine | 0.21 | TRUE | –
9 | OCC(Cc1cncs1)Nc1ncnc2[nH]ccc12 (stereo not drawn) [AVI-3703] | – | – | – | 0.15 | TRUE | 1 | 30% | Adenosine | TRUE | TRUE | – | 0.15 | TRUE | –
10 | OCC(Cc1ccoc1)Nc1ncnc2[nH]ccc12 (stereo not drawn) [AVI-3705] | – | – | – | 0.21 | TRUE | 1 | 42% | Adenosine | TRUE | TRUE | – | 0.21 | TRUE | –
11 | O=C(O)C(F)(F)F.OCC(Cc1cccc(F)c1)Nc1ncnc2[nH]ccc12 (stereo not drawn) [AVI-3706] | – | – | – | – | – | – | – | – | – | – | – | – | – | Pandda run, overall: Modeling comment [2]: TFA only
12 | OCC1CC2(CCOCC2)CN1c1ncnc2[nH]ccc12 (stereo not drawn) [AVI-3707] | – | – | – | 0.21 | – | 1 | 42% | – | TRUE | TRUE | Adenosine | 0.21 | TRUE | Pandda run, overall: Modeling comment [2]: Distal site, weak density, not modeled
13 | OCC(COCc1ccccc1)Nc1ncnc2[nH]ccc12 (stereo not drawn) [AVI-3709] | – | – | – | 0.19 | TRUE | 2 | 38% | Adenosine | TRUE | TRUE | – | 0.19 | TRUE | –
14 | O=C(O)C(F)(F)F.OC[C@@H]1CC2(CC2)CN1c1ncnc2[nH]ccc12 [AVI-3710] | – | – | – | 0.26 | – | 2 | 52% | – | TRUE | TRUE | Adenosine | 0.26 | TRUE | Pandda run, overall: Modeling comment [2]: Weak density for open state of Phe132 loop
15 | OCC(Cc1cccs1)Nc1ncnc2[nH]ccc12 (stereo not drawn) [AVI-3711] | – | – | – | 0.21 | TRUE | 1 | 42% | Adenosine | TRUE | TRUE | – | 0.21 | TRUE | –
16 | O=C(O)C(F)(F)F.OCC1C2C=CC(C2)N1c1ncnc2[nH]ccc12 (stereo not drawn) [AVI-3712] | – | – | – | – | – | – | – | – | – | TRUE | – | 0.15 | TRUE | Pandda run, overall: Modeling comment [2]: Weak density, not modeled; PanDDA run, TFA/DMSO background map: 1-BDC (soak concentration 10 mM): 0.05; PanDDA run, TFA/DMSO background map: Hit (soak concentration 10 mM): TRUE
17 | CC(C)(C)C(O)CC(CO)Nc1ncnc2[nH]ccc12.O=C(O)C(F)(F)F (stereo not drawn) [AVI-3714] | – | – | – | – | – | – | – | – | – | – | – | – | – | Pandda run, overall: Modeling comment [2]: TFA only
18 | OCC(Nc1ncnc2[nH]ccc12)c1ccccc1 (stereo not drawn) [AVI-3715] | – | – | – | 0.18 | TRUE | 1 | 36% | Adenosine | TRUE | TRUE | – | 0.18 | TRUE | –
19 | OCC1COCCN1c1ncnc2[nH]ccc12 (stereo not drawn) [AVI-3717] | – | – | – | 0.14 | – | 2 | 28% | – | TRUE | TRUE | Adenosine | 0.14 | TRUE | –
20 | CC(C)(C)C1CCC(CO)N(c2ncnc3[nH]ccc23)C1 (stereo not drawn) [AVI-3719] | – | – | – | 0.08 | – | 1 | 16% | – | TRUE | TRUE | Adenosine | 0.08 | TRUE | Phe132 loop open state (TRUE = open state of Phe132 loop modeled): TRUE
